The subject of the test is skin pigmentation. As to the kind of experiment: Clinical study: facial pigment intensity from digital photography. The note with it: lotion with 1.00% acetyl zingerone (Formulation 1A) applied to full face twice daily, group of 17. It counts as in vivo, human.

Regarding `COc1cc(CC(C(C)=O)C(C)=O)ccc1O` [Compd. 1, Acetyl Zingerone], the “Pigment Intensity (% Change), Average” value (4 weeks) is −25.580% and the “Pigment Intensity (% Change), Average” value (8 weeks) is recorded as −25.601%.

The values above are taken from patent publication US10828241B2, “Skin lightening compositions and methods” (SYTHEON LIMITED, priority 2018, dated 2020).
